Results: PubChem BioAssay (NCI)
“And” between values parts separate entries of the source, which are not always exact repeats. Identical values can stand only once.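 Step 1: Grow cells in 96-well plates. Step 2: Expose to compound for 48 hours at 5 concentrations. Step 3: Interpolate endpoints linearly; if unreached, use highest concentration. GI50 is the concentration that inhibits growth by half. The concentration for full growth arrest is given as TGI.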

Legend:
Assay in all cases: NCI anticancer screen, dose series, 48 h
COLO 205 colon = tested on: COLO 205 colon
PC-3 prostate = tested on: PC-3 prostate
HCT-15 colon = tested on: HCT-15 colon
CCRF-CEM leukemia = tested on: CCRF-CEM leukemia
KM12 colon = tested on: KM12 colon
OVCAR-3 ovarian = tested on: OVCAR-3 ovarian
A498 renal = tested on: A498 renal
SR leukemia = tested on: SR leukemia
SNB-75 CNS = tested on: SNB-75 CNS
NCI-H23 lung = tested on: NCI-H23 lung

SMILES | GI50 (COLO 205 colon) | TGI (COLO 205 colon) | GI50 (PC-3 prostate) | TGI (PC-3 prostate) | GI50 (HCT-15 colon) | TGI (HCT-15 colon) | GI50 (CCRF-CEM leukemia) | TGI (CCRF-CEM leukemia) | GI50 (KM12 colon) | TGI (KM12 colon) | GI50 (OVCAR-3 ovarian) | TGI (OVCAR-3 ovarian) | GI50 (A498 renal) | TGI (A498 renal) | GI50 (SR leukemia) | TGI (SR leukemia) | GI50 (SNB-75 CNS) | TGI (SNB-75 CNS) | GI50 (NCI-H23 lung) | TGI (NCI-H23 lung)
CC(=O)C1=C(O)C=C2Oc3c(C(=O)/C=C/c4cc(Cl)cc(Cl)c4)c(O)c(C)c(O)c3[C@]2(C)C1=O | 0.408 µM | 0.988 µM | 0.537 µM | 2.04 µM | 0.539 µM | 2.54 µM | 0.498 µM | 2.65 µM | 0.46 µM | 1.76 µM | 0.417 µM | 1.23 µM | 0.259 µM | 0.5 µM | 459 nM | 4.35 µM | 1.66 µM | 4.06 µM | 0.5 µM | 2.05 µM
CCOc1ccn(-c2ccc(F)cc2)c(=O)c1C(=O)Nc1ccc(Oc2ccnc(N)c2Cl)c(F)c1 | 2.54 µM | 5.57 µM | 9.02 µM | > 100 µM | 10.6 µM | > 79.6 µM | 3.63 µM | 36.9 µM | 0.404 µM | > 100 µM | 24.3 µM | > 100 µM | 1.6 µM | 12.2 µM | 6170 nM | 28.7 µM | 2.39 µM | 22.5 µM | 10.4 µM | > 100 µM
Cc1cc(-c2cc(O)ccc2Cl)cc2nnc(Nc3ccc(OCCN4CCCC4)cc3)nc12 | 2.08 µM | 4.29 µM | 0.424 µM | 1.54 µM | 0.183 µM | 0.36 µM | 0.242 µM | 0.634 µM | 0.617 µM | 1.32 µM | 1.59 µM | 3.12 µM | 1.41 µM | 2.92 µM | 239 nM | 0.595 µM | 0.824 µM | 2.22 µM | 0.812 µM | 2.48 µM
CCOC(=O)C(C#N)C1=CC(=O)C(=O)c2ccc(O)cc21 (stereo not given) | – | > 100 µM | – | > 100 µM | – | > 100 µM | – | > 100 µM | – | > 100 µM | – | > 100 µM | – | > 100 µM | – | > 100 µM | – | > 100 µM | – | 58 µM
CC1(C)CCCC(C)(C2CCC3(C)C2C(O)CC2C4(C)CCC(O)C(C)(C)C4CCC23C)O1 (stereo not given) | – | > 100 µM | – | > 100 µM | – | > 100 µM | – | > 100 µM | – | > 100 µM | – | – | – | > 100 µM | – | > 100 µM | – | > 100 µM | – | > 100 µM
Clc1ccccc1-c1nnc2c(Cc3ccccc3)nc3ccccc3n12 | > 29.6 µM | > 100 µM | 4.66 µM | > 100 µM | 1.56 µM | > 100 µM | 7.11 µM | > 100 µM | 13.1 µM | > 100 µM | 22.8 µM | > 100 µM | 1.21 µM | > 100 µM | 3910 nM | > 100 µM | 3.78 µM | 40.3 µM | > 100 µM | > 100 µM
CCCCCC/C=C\CCCCCCCCCC1=C(CN2CCN(C)CC2)C(=O)C=C(OC)C1=O | – | 3.37 µM | – | 10.5 µM | – | 7.87 µM | – | 1.95 µM | – | 21 µM | – | 17.3 µM | – | 32.6 µM | – | 1.81 µM | – | 16.6 µM | – | 15.4 µM
O=C(O)C1[O][Sb][O]C(C(=O)O)C1O (stereo not given) | – | – | > 100 µM | > 100 µM | > 100 µM | > 100 µM | > 100 µM | > 100 µM | > 100 µM | > 100 µM | > 100 µM | > 100 µM | > 100 µM | > 100 µM | > 100000 nM | > 100 µM | > 100 µM | > 100 µM | > 100 µM | > 100 µM
CC(C)CCCCCCCCCCCCC(=O)NCC(=O)NC1C(O)C(O)C(Nc2ncnc3nc[nH]c23)OC1C(O)CO (stereo not given) | – | 0.00316 µM and 0.00155 µM and 0.00526 µM | < 1e-05 µM | – | 0.00599 µM and 0.0249 µM | 0.896 µM and 1.1 µM | 0.0318 µM and 0.023 µM | 0.59 µM and 3.36 µM | – | 0.0479 µM and 0.0235 µM | – | 0.00189 µM and 0.00279 µM and 0.00509 µM | 0.005 µM | 0.0123 µM and 0.0132 µM | < 0.01 nM | – | < 1e-05 µM | – | 0.005 µM | 0.0354 µM and 0.0371 µM
Cn1cc(-c2cnn3c(N)c(Br)c(C4CCCNC4)nc23)cn1 (stereo not given) | 4.54 µM | 19.8 µM | 5.26 µM | > 86.2 µM | 14.2 µM | > 79.9 µM | 0.631 µM | 38.9 µM | 3.69 µM | 44.7 µM | 16 µM | > 88.9 µM | 0.238 µM | 2 µM | 326 nM | 16.9 µM | 0.464 µM | 39.1 µM | 0.546 µM | > 81.6 µM
C/C=C1/CC(C)C(C)(O)C(=O)OCC2C(O)CN3CCC(OC1=O)C23 (stereo not given) | – | > 100 µM | – | > 100 µM | – | > 100 µM | – | > 100 µM | – | > 100 µM | – | – | – | > 100 µM | – | > 100 µM | – | > 100 µM | – | > 100 µM
CCCCCCCCCCCCOC1C(CNC(=O)C2OC3OC(C)(C)OC3C2NC(=O)CN2CCN(c3ccc(OC)cc3)CC2)OC2OC(C)(C)OC21 (stereo not given) | 2.26 µM | 4.82 µM | 2.82 µM | 9.79 µM | 3.53 µM | 11.3 µM | 4.1 µM | 16.9 µM | 3.35 µM | 10.9 µM | 4.01 µM | 14.5 µM | 7.96 µM | 20.3 µM | 2860 nM | 6.07 µM | 4.46 µM | 17.4 µM | 9.68 µM | 32 µM
CCN(Cc1cccc(Cl)c1)c1ccc(CO)c(Cl)c1 | 2.43 µM | 7.53 µM | 9.8 µM | 23.2 µM | 9.93 µM | 25.9 µM | 11.9 µM | 35.4 µM | 12.9 µM | 26.8 µM | 0.835 µM | 5.29 µM | 0.029 µM | 0.166 µM | 16900 nM | 39.9 µM | 12 µM | 30.2 µM | 7.51 µM | 23.7 µM
N#Cc1cnc(Nc2cc(NC[C@H]3CNCCO3)c(C(F)(F)F)cn2)cn1 | 9.61 µM | 23.6 µM | 21.1 µM | 87.5 µM | 11 µM | > 100 µM | 0.8 µM | > 100 µM | 11.4 µM | 88.4 µM | 13.3 µM | 48.3 µM | 0.462 µM | 18 µM | 640 nM | 24 µM | 11.5 µM | 28.1 µM | 0.791 µM | 26.8 µM
